From ChEMBL document CHEMBL1157537 (J Med Chem, 2008)

Biological target: T1, Glucocorticoid receptor (Homo sapiens) (UniProt P04150)
T1 sequence (whole entry): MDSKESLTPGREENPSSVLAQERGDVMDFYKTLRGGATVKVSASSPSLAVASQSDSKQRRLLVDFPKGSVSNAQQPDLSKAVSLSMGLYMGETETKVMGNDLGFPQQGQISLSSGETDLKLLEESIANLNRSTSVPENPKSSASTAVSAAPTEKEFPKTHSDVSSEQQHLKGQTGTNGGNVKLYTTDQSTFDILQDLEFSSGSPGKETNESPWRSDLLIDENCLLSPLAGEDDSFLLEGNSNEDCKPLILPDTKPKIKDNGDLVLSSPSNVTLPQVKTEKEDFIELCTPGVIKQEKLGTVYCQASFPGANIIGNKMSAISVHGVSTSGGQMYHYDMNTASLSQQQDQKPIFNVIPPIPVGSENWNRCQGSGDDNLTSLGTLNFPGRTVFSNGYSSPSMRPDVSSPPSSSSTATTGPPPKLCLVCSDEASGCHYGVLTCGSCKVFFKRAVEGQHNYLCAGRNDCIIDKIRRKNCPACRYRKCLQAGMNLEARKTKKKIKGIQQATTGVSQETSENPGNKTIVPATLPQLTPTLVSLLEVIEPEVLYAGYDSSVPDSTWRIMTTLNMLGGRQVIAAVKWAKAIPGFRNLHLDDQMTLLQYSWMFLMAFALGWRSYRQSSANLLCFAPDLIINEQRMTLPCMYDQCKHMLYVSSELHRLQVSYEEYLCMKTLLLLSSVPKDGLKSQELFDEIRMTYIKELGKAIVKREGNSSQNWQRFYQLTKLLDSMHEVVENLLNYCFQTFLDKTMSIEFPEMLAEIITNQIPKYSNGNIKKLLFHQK
Experiment: Agonist activity at human glucocorticoid receptor relative to Dexamethasone
Format: functional

Efficacy: 6%
Structure (SMILES): CC1=C[C@@H]([C@@H]2Oc3c(F)cc(F)cc3-c3ccc4c(c32)C(C)=CC(C)(C)N4)CCC1 (stereo in doubt; (-)-5c)
